Experimental data taken from US20210361701A1, “PENTAAZA MACROCYCLIC RING COMPLEXES FOR LOCAL DELIVERY” (Galera Labs, LLC, priority 2017, published 2021).
Values joined by “and” are separate entries in the source; they are usually repeats but may differ in a detail not shown here. Equal entries are not always repeated.

Tests used:
[1] = Minipig intraduodenal (id) bioavailability of oil formulations versus iv parent complex; format: in vivo, Gottingen minipig; details: id 10 mg/kg, 10% by weight formulation, vs 1 mg/kg iv parent, AUC0->24 h
Description: Compounds were screened for oral bioavailability by injecting the formulated prodrugs directly into the duodenum (intraduodenal or id administration) of the minipig test subjects, thus bypassing the acidic environment of the stomach and thereby eliminating potentially misleading oral bioavailability results that could arise from alteration of the test article drug in the acid environment of the stomach.
The studies were conducted at Xenometrics LLC (Stillwell, Kans.) and the id bioavailability was determined using various axial ligand derivative complexes of GC4419, GC4444, GC4403 and GC4401. […] The following formula is then used to calculate the % oral bioavailability via intestinal absorption of the test article drug complex:
% Oral Bioavailability=AUC0->24 h(id)×(1/dose (mg/kg))÷AUC0->24 hr (iv)*
*Where the iv dose is 1 mg of test article drug per kilogram body weight of the mini-pig, and the dose administered id is 10 mg of test article drug per kg body weight of the mini-pig.
Male Gottingen minipigs (4-5 mo old, 9-12 kg weight) were purchased from Marshall BioResources and housed at Xenometrics. […] The distal end was exteriorized with a reusable accessible hub (see surgical details below). During a recovery period of at least 2 weeks the minipigs were handled daily to acclimate them to the test procedures, i.e., id dosing and blood collections. For each experiment, each minipig received a test article drug dissolved or suspended in an excipient vehicle. […] All dosing experiments were conducted in fasted animals. Food was withdrawn from the minipigs 16 hours before dosing. The minipigs had ad libitum access to water. Dosed minipigs were allowed access to food 6 hour after dosing. The test article was administered at a dose of 10 mg/kg parent drug in 0.1 mL/kg vehicle (e.g., 1.5 mL in 15 kg minipig) as a bolus injection (˜1 minute) via the id cannula. The actual amount of total test article drug administered varied with the formula weight of the prodrug. An equal volume of excipient vehicle was used to flush the cannula after the test article was administered. Approximately 6 hours later, corn oil was used to flush the cannula. After approximately 24 hours post-dose, the catheter was flushed with sterile saline solution and capped. At the following time-points 0.25, 0.5, 1, 2, 4, 8, 24 and 48 hour post-injection, 2 mL blood samples were collected by cranial vena cava puncture (4 mL Sodium heparin Vacutainer, 20 g 1.5″ needle) after the skin surface was wiped with ethanol. The minipig was placed in a sling in a recumbent position without anesthesia for the collection of blood samples. The minipigs were never used more than once per 7 days for experimentation. The blood samples were kept on ice until processed for plasma. Blood samples were centrifuged at 1200×g for ten minutes at 4° C. and plasma samples were transferred to 96 well plate tubes, capped and stored at −20° C. until shipment on dry ice to the analytical laboratory used for measuring the concentration of drug in the plasma. The concentration of the parent manganese pentaaza macrocylic ring complex (independent of the composition of the axial ligands) was measured in plasma using a validated HPLC/MS/MS method that is linear between 50 ng/mL and 20,000 ng/mL.
The oils used for preparing the dosing solutions were used as supplied from commercial sources. The Capmul MCM (NF) is a mixture of mono/diglycerides of caprylic/capric acids and was supplied by ABITEC Corporation, Janesville, Wis. The Miglyol 812 N is a mixture of caprylic/capric acid triglycerides and was supplied by Cremer Oleo Division, Eatontown, N.J. Labrafil M 2125 CS (NF) is chemically defined to be linoleoyl polyoxyl-6 glycerides NF and was supplied by Gattefosse, SAINT-PRIEST Cedex, France. Peceol is chemically defined to be the monoglyceride, glyceryl monooleate NF, and was supplied by Gattefosse, SAINT-PRIEST Cedex, France. […]

[2] = Phase 1b trial of intravenous GC4419: oral mucositis outcome; format: in vivo, human; details: IV GC4419 with IMRT plus CDDP; compared with historical controls
Description: (§1) The toxicity of GC4419 administered intravenously was evaluated as a part of a phase 1b trial of the use of GC4419 in the treatment of oral mucositis (OM) in patients having oral cavity or oropharyngeal carcinoma. The bioavailability by intravenous administration is presumed to represent 100% systemic bioavailability. In particular, the patients tested included serial 3-6 patient cohorts, with locally-advanced, non-metastatic oral cavity or oropharyngeal carcinoma. The study called for intensity-modulated (IM)RT to approx. 70 Gy total (>50 Gy to >2 oral sites), 2.0-2.2 Gy/fx M-F plus CDDP; plus escalating doses of GC4419, via 60-minute IV infusion, M-F for 3-7 weeks, ending <60 minutes before IMRT. WHO grade of oral mucositis was assessed twice weekly, and levels of GC4419 were measured in plasma by LC/MS. Circulating cytokines (Cy) mechanistically related to oral mucositis were also assayed.

[3] = Phase 1b trial of intravenous GC4419: toxicity and plasma pharmacokinetics; format: in vivo, human
Description: as §1
Furthermore, or Phase 1 trials for chemoradiotherapy-induced mucositis (OM) in patients with mouth or oropharyngeal carcinoma, treatment was provided but certain adverse effects (e.g., due to systemic toxicity) occurred. The dosing regimen included dosing with GC4419 intravenously over a period of 60 minutes, ending 60 minutes before an IMRT fraction, according to the protocol as described above. The most common adverse effects were nausea, fatigue, leukopenia, dry mount, dysgeusia and vomiting, and most were attributable to chemo or radiation therapy. A true “maximum dose” was not reached in this study. […] 16% of patients receiving 90 mg/day had grade 3 nausea, and 25% of those receiving 112 mg/day had grade 3 nausea, with those receiving 112 mg/day also experiencing some grade 3 vomiting (i.e., 25%).

[4] = Plasma pharmacokinetics after intraduodenal or intravenous dosing in female rats; format: in vivo; details: rat, in vivo
Description: Therefore, following equivalent doses of GC4403, the systemic exposure to an ID dose in this Example was at least 30-100 times lower than it would be from an IV dose. […] This is important since the No Observable Adverse Effect Level (NOAEL) for chronic repeated IV dosing of GC4403 in the rat was previously shown to be only 3 mg/kg/day, and at this time, GC4403 has only be administered successfully to humans by the IV route. Thus, GC4403 or another related dismutase mimetic, such as GC4419, administered as an appropriate oral dosage form delivering drug directly into the small intestine may be an effective treatment for Crohn's Disease, ulcerative colitis and related diseases in humans.

## Manganese(II)bis-D-phenylglycinato [(4aS,13aS,17aS,21aS)-1,2,3,4,4a,5,6,12,13,13a, 14,15,16,17,17a,18,19,20,21,21a-Eicosahydro-11,7-nitrilo-7H-dibenzo[b,h][1,4,7,10] tetraazacyclo-heptadecine-κN5, κN13, κN18, κN21, κN22]- [GC4721]
[1]; Base oil Miglyol 812 N
  Mini-Pig BioA: 11.5%^

## [Cl][Mn][Cl].c1cc2nc(c1)CN[C@H]1CCCC[C@@H]1NCCN[C@H]1CCCC[C@@H]1NC2 [GC4419]
[2]
  Severe OM: briefer, delayed, less severe, and less frequent than expected
[3]; 30 mg/day for 14 or 30 doses, IV
  nausea, patients: 86%
[3]; 50 mg/day for 14 doses, IV
  nausea, patients: 100%
[3]; 75 mg/day for 14 doses, IV
  nausea, patients: 67%
[3]; 90 mg/day, IV
  grade 3 nausea, patients: 20% and 16%
[3]; 112 mg daily, 60-minute IV infusion, with IMRT/CDDP
  Dose-limiting toxicities that occurred, grade 3: gastroenteritis (3 wks); and vomiting with hyponatremia (5+ wks)
[3]; 112 mg/day for 14, 20, 25 or 30 doses, IV
  nausea, patients: 89% and 85%
[3]; 60-minute IV infusion, 15-112 mg
  Cmax and AUC: dose-proportional
[3]; 60-minute IV infusion, patients
  plasma t1/2: ~2 h
[3]; 60-minute IV infusion, grade 3 gastroenteritis at 3 weeks, grade 3 vomiting and hyponatremia at 5+ weeks
  dose limiting toxicity observed at: 112 mg/day
[3]; IV, 15-112 mg daily for 3-7 weeks
  GC4419-related toxicity: acceptable
[3]; IV, up to 112 mg/day
  maximum dose: not reached
[3]; during infusion
  facial tingling: Mild, transient facial tingling was observed
[3]; patients receiving more than 30 mg/day, IV
  paresthesia: Some grade 1-2 paresthesia was also observed
[4]
  plasma concentrations and Cmax: similarly low plasma concentrations and Cmax as GC4403
[4]; iv
  plasma concentrations and Cmax: similarly high plasma concentrations and Cmax

## CC1NC2CCCCC2NCCNC2CCCCC2NCc2cccc1n2.CCC(=O)[O-].CCC(=O)[O-].[Mn+2] [GC4747, Manganese(II)bis-propionato[6R-Methyl(4aR,13aR,17aR,21aR)-1,2,3,4,4a,5,6,12,13,13a,14,15,16,17,17a,18,19,20,21,21a-Eicosahydro-11,7-nitrilo-7H-dibenzo[b,h][1,4,7,10]tetraazacycloheptadecine-κN5, κN13, κN18, κN21, κN22]-]
[1]; Base oil Labrafil M2125 CS
  Mini-Pig BioA: 20%

## CCCC(=O)[O-].CCCC(=O)[O-].[Mn+2].c1cc2nc(c1)CNC1CCCCC1NCCNC1CCCCC1NC2 [GC4713, Manganese(II)bis-n-Butyrato[(4aS,13aS,17aS,21aS)-1,2,3,4,4a,5,6,12,13,13a,14,15,16,17,17a,18,19,20,21,21a-Eicosahydro-11,7-nitrilo-7H-dibenzo[b,h][1,4,7,10]tetraazacycloheptadecine-κN5, κN13, κN18, κN21, κN22]-]
[1]; Base oil Labrafil M2125 CS
  Mini-Pig BioA: 21%
[1]; Base oil Peceol
  Mini-Pig BioA: 18%

## O=C([O-])c1ccccc1.O=C([O-])c1ccccc1.[Mn+2].c1cc2nc(c1)CNC1CCCCC1NCCNC1CCCCC1NC2 [GC4712, Manganese(II)bis-Benzoato[(4aS,13aS,17aS,21aS)-1,2,3,4,4a,5,6,12,13,13a,14,15,16,17,17a,18,19,20,21,21a-Eicosahydro-11,7-nitrilo-7H-dibenzo[b,h][1,4,7,10]tetraazacycloheptadecine-κN5, κN13, κN18, κN21, κN22]-]
[1]; Base oil Capmul MCM
  Mini-Pig BioA: 24%
[1]; Base oil Maisine 35-1
  Mini-Pig BioA: 18%
[1]; Base oil Peceol
  Mini-Pig BioA: 29%
